Article PMC7016291 (Acta Pharmaceutica Sinica. B, 2019)
Values joined by “and” are separate entries in the source; they are usually repeats but may differ in a detail not shown here. Equal values may be shown once.

How the values were obtained:
HIV-2 (ROD) = experiment: Anti-HIV activity in MT-4 cells; format: cell-based; conditions: Human immunodeficiency virus 2, MT4, read-out: EC50 ROD
[1] = Cytotoxicity in uninfected MT-4 cells; format: cell-based; conditions: human, uninfected MT-4 cells
HIV-1 L100I = experiment: Anti-HIV-1 activity against mutant strain L100I in MT-4 cells; format: cell-based; conditions: Human immunodeficiency virus 1, MT4, read-out: EC50 L100I
HIV-1 K103N = experiment: Anti-HIV-1 activity against mutant strain K103N in MT-4 cells; format: cell-based; conditions: Human immunodeficiency virus 1, MT4, read-out: EC50 K103N
HIV-1 Y181C = experiment: Anti-HIV-1 activity against mutant strain Y181C in MT-4 cells; format: cell-based; conditions: Human immunodeficiency virus 1, MT4, read-out: EC50 Y181C
HIV-1 Y188L = experiment: Anti-HIV-1 activity against mutant strain Y188L in MT-4 cells; format: cell-based; conditions: Human immunodeficiency virus 1, MT4, read-out: EC50 Y188L
HIV-1 E138K = experiment: Anti-HIV-1 activity against mutant strain E138K in MT-4 cells; format: cell-based; conditions: Human immunodeficiency virus 1, MT4, read-out: EC50 E138K
[2] = system: HIV-1 RES056 (K103N/Y181C); experiment: Anti-HIV-1 activity against double mutant RES056 in MT-4 cells; format: cell-based; conditions: Human immunodeficiency virus 1, MT4, read-out: EC50 RES056
HIV-1 F227L + V106A = experiment: Anti-HIV-1 activity against double mutant F227L + V106A in MT-4 cells; format: cell-based; conditions: Human immunodeficiency virus 1, MT4, read-out: EC50 F227L + V106A
WT HIV-1 RT = WT HIV-1 RT (Human immunodeficiency virus type 1 group M subtype B, UniProt P03366); experiment: HIV-1 RT inhibition assay; format: biochemical
HIV-1 RT RNase H = HIV-1 RT RNase H (Human immunodeficiency virus type 1 group M subtype B, UniProt P03366); experiment: HIV-1 RT RNase H inhibition; format: biochemical
CYP2C9 = CYP2C9 (Homo sapiens, UniProt P11712); experiment: Cytochrome P450 inhibition, CYP2C9; format: in vitro ADME
CYP2C19 = CYP2C19 (Homo sapiens, UniProt P33261); experiment: Cytochrome P450 inhibition, CYP2C19; format: in vitro ADME
[3] = In vivo pharmacokinetics in SD rats; conditions: rat, plasma
CYP3A4M = CYP3A4M (Homo sapiens, UniProt P08684)
CYP1A2 = target: T1, CYP1A2 (Homo sapiens, UniProt P05177); experiment: biochemical
T1 sequence (P05177 1-516): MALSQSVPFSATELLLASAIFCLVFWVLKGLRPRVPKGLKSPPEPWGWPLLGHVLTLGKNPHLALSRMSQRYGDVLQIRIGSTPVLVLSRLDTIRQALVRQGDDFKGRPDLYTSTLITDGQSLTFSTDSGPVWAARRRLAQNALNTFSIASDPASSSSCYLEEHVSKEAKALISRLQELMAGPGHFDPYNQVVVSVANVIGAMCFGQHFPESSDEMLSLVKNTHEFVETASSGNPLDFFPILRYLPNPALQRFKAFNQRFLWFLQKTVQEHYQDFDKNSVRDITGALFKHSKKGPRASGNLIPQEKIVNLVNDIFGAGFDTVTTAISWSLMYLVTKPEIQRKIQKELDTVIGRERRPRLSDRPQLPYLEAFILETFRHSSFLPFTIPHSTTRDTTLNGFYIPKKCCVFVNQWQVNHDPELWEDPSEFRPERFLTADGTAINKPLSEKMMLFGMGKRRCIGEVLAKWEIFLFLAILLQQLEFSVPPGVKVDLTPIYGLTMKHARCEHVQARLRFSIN

CYP2D6 = CYP2D6 (Homo sapiens, UniProt P10635); experiment: biochemical
[4] = Kinetic aqueous solubility; conditions: kinetic from dmso stock
[5] = Plasma protein binding, dialysis equilibrium method, rat
[6] = Plasma protein binding, dialysis equilibrium method, human

Chain of CYP2D6 (P10635 whole entry): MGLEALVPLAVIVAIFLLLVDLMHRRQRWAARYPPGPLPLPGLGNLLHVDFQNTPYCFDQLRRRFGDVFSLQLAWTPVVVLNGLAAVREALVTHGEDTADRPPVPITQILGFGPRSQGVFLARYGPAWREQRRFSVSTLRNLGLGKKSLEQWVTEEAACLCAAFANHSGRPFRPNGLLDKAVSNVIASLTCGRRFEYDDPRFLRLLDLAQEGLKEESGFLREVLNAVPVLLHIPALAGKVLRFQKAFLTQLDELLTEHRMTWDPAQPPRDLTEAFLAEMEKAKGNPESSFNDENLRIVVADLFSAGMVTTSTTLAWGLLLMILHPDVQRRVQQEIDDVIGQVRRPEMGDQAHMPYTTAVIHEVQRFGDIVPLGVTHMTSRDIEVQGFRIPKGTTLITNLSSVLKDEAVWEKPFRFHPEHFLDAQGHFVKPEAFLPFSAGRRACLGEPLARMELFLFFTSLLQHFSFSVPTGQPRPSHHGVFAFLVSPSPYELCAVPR
Chain of CYP2C19 (P33261 whole entry): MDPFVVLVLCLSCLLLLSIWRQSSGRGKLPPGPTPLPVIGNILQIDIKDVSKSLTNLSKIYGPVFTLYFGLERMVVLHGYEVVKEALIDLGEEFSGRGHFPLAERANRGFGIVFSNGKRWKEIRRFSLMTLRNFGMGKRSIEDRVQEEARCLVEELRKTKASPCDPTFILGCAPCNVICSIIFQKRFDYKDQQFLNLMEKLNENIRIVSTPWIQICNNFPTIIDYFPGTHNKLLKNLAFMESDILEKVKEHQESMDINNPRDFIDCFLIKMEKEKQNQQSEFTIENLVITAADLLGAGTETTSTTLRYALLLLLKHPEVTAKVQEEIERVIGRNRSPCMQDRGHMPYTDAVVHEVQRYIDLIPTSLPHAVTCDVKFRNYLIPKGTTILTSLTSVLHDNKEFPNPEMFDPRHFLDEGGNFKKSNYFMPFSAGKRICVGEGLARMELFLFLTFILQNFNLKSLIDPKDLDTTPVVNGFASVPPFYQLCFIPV
Chain of CYP2C9 (P11712 whole entry): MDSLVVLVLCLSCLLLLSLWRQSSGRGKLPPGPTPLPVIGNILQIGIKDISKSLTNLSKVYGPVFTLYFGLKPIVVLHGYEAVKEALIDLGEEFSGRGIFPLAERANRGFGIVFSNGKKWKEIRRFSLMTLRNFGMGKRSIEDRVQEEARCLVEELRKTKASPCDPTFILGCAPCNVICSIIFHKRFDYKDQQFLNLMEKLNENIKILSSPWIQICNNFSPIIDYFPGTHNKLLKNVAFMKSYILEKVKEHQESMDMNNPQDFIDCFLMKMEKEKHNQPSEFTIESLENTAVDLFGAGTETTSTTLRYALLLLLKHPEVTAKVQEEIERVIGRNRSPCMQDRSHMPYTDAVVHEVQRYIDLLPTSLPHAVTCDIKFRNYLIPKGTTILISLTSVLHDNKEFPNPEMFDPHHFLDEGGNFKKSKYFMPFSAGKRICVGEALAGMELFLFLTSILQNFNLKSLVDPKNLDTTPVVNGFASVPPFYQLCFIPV
Chain of CYP3A4M (P08684 whole entry): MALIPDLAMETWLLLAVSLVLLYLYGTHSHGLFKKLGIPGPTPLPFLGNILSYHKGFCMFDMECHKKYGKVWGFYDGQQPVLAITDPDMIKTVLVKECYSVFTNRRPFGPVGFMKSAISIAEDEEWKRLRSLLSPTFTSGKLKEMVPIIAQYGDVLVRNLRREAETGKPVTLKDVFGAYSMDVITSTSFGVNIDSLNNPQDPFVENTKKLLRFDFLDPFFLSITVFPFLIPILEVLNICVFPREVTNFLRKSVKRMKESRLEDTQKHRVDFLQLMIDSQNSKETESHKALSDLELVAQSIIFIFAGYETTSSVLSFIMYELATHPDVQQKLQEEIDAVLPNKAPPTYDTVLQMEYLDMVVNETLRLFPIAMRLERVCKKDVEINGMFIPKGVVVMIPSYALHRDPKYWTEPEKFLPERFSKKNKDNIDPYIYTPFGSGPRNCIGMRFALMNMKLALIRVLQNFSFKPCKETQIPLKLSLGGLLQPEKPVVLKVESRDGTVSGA

With `Cc1cc(-c2ccc(C#N)cc2)cc(C)c1Oc1nc(NCCN2CCOCC2)nc(Nc2ccc(C#N)cc2)n1` [Compound 5j, 4ʹ-((4-((4-Cyanophenyl)amino)-6-((2-morpholinoethyl)amino)-1,3,5-triazin-2-yl)-oxy)-3ʹ,5ʹ-dimethyl-[1,1ʹ-biphenyl]-4-carbonitrile] the EC50 (HIV-2 (ROD)) was 0.05 ± 0.001 µM, the CC50 at 4 days [1] was 1.08 ± 0.09 µM and the EC50 (HIV-1 L100I) was 0.012 ± 0.002 µM. It also gave an EC50 (HIV-1 K103N) of 0.003 ± 0.001 µM, an EC50 (HIV-1 Y181C) of 0.013 ± 0.002 µM and an EC50 (HIV-1 Y188L) of 0.017 ± 0.003 µM. It also gave an EC50 (HIV-1 E138K) of 0.0064 ± 0.0001 µM, an EC50 [2] of 0.034 ± 0.004 µM and an EC50 (HIV-1 F227L + V106A) of 0.017 ± 0.004 µM. The IC50 (WT HIV-1 RT) was 0.176 µM, the IC50 (HIV-1 RT RNase H) was > 1100 µM and the IC50 (CYP2C9) was 32.9 µM. For the same compound, the IC50 (CYP2C19) was > 50 µM, the AUC(0-inf) ([3]; iv, 1 mg/kg) was 6660 ± 809 ng·h/mL and the AUC(0-t) ([3]; iv, 1 mg/kg) was 6650 ± 795 ng·h/mL. The clearance ([3]; iv, 1 mg/kg) was 5.06 ± 0.658 mL/min/kg, the half-life ([3]; iv, 1 mg/kg) was 0.734 ± 0.174 h and the AUC(0-t) ([3]; po, 20 mg/kg) was 322 ± 176 ng·h/mL. The Cmax ([3]; po, 20 mg/kg) was 43.2 ± 39.8 ng/mL, the Tmax ([3]; po, 20 mg/kg) was 13.3 ± 9.24 h and the bioavailability ([3]; po, 20 mg/kg) was 0.485%. The IC50 (CYP3A4M) was > 50 µM, the IC50 (CYP1A2) was > 50 µM and the IC50 (CYP2D6) was > 50 µM. The solubility kinetic ([4]; FaSSIF) was 41.6 µg/mL and 76.2 µM, the solubility kinetic ([4]; aqueous solution at pH 2.0, pH 2, aqueous buffer) was 6.58 µg/mL and 12.1 µM and the solubility kinetic ([4]; aqueous solution at pH 7.0, pH 7, aqueous buffer) was < 0.853 µg/mL and < 1.56 µM. For the same compound, the solubility kinetic ([4]; aqueous solution at pH 7.4, pH 7.4, aqueous buffer) was < 0.853 µg/mL and < 1.56 µM, the recovery at 2 μmol/L [5] was 99.5% and the recovery at 2 μmol/L [6] was 84.9%.
